Experiment: Thermal stability of the PSS in the dark and fatigability over illumination cycles
Format: physicochemical
Conditions: for A(320 nm): Sup. Fig. 1C; for A(371 nm): Sup. Fig. 1G; for A(334 nm): Sup. Fig. 1K
Text: , we focused on the three key properties allowing the use of azobenzenes in biological systems: (i) wavelengths for trans-to-cis and cis-to-trans conversions; (ii) compound thermalstability, i.e., half-life of the cis isomer in the dark; and (iii) fatigability, i.e., the number of illumination cycles that the molecule can undergo without degradation. To this aim, […] recording solution (Ringer pH 7.3; see Methods) either in the dark (absence of illumination) or after illumination by light wavelengths ranging from 350 to 580 nm (Figures 2B and S1M). In the dark (black curve in Figure 2B), the spectrum was characteristic of a trans isomer.[32] Application of UV light at a wavelength close to the main absorption peak of the trans form (365 or 350 nm) gave a completely different spectrum (violet curves in Figure 2B), characteristic of azobenzenes in their cis configuration.[32] […] states (PSS) containing 100% trans in the dark, 82% cis and 18% residual trans after illumination at 365 nm (365 nm PSS, violet curve in Figure 2C), and 91% cis and 9% residual trans after illumination at 350 nm (350 nm PSS, lavender curve in Figure 2C). […] from 435 to 550 nm gave equivalent cis-to-trans conversions with 435 and 550 nm yielding slightly stronger conversions (∼70% trans after illumination at 435 and 550 nm calculated from UV–visible spectra at λtrans = 329 nm, Figures 2B and S1N; 550 nm PSS of 69% trans and 31% cis measured by HPLC, Figure 2C, green trace). 550 nm was chosen as the optimal wavelength since green light is less harmful for cells than lights of shorter wavelengths. We then tested the thermal stability of the cis form in the dark (in the absence of illumination). […]
Thermal stability of the cis state (365 nm PSS) was measured by irradiating the solution with 365 nm light during 10 min, then letting it relax in the dark, at room temperature (20–22 °C), inside the spectrophotometer. Spectra were acquired at regular intervals, up to 1 day, after irradiation.

[1] = Ringer pH 7.3, room temperature

With `Nc1ccnc(/N=N/c2ccccc2)c1` [OptoNAM-1, (E)-2-(phenyldiazenyl)pyridin-4-amine] the “thermal stability of the 365 nm PSS (mostly cis) in the dark: time without change of spectra” value [1] was ≥ 60 min, the “A(320 nm)” value (365 nm (t=0)) was 0.092 and the “A(320 nm)” value (365 nm (t=2 min)) was 0.093. For the same compound, the “A(320 nm)” value (365 nm (t=5min)) was 0.093, the “A(320 nm)” value (365 nm (t=10 min)) was 0.093 and the “A(320 nm)” value (365 nm (t=20min)) was 0.093. The “A(320 nm)” value (365 nm (t=40min)) was 0.094, the “A(320 nm)” value (365 nm (t=60min)) was 0.094 and the “A(320 nm)” value (dark) was 0.207.

For `Cc1cc(N)nc(/N=N/c2ccccc2)c1` [OptoNAM-2, (E)-4-methyl-6-(phenyldiazenyl)pyridin-2-amine], the “thermal stability of the 365 nm PSS (mostly cis) in the dark: time without change of spectra” value [1] was ≥ 60 min, the “A(371 nm)” value (365 nm (t=0)) was 0.257 and the “A(371 nm)” value (365 nm (t=1 min)) was 0.255. For the same compound, the “A(371 nm)” value (365 nm (t=5min)) was 0.256, the “A(371 nm)” value (365 nm (t=10 min)) was 0.255 and the “A(371 nm)” value (365 nm (t=20 min)) was 0.257. The “A(371 nm)” value (365 nm (t=40min)) was 0.258 and the “A(371 nm)” value (365 nm (t=60min)) was 0.260.

For `c1ccc(/N=N/c2ccc(CCNc3ccncc3)cc2)cc1` [OptoNAM-3, (E)-N-(4-(Phenyldiazenyl)phenethyl)pyridin-4-amine], the “thermal stability of the 550 nm PSS in the dark: time without change of spectrum” value [1] was ≥ 24 h and the “cycles of UV/green illumination without degradation” value (absorbance at 329 nm) was ≥ 10 cycles.

For `CS(=O)(=O)Nc1ccc2nc(Cc3ccc(/N=N/c4ccccc4)cc3)[nH]c2c1` [OptoNAM-4, (E)-N-(2-(4-(phenyldiazenyl)benzyl)-1H-benzo[d]imidazol-6-yl)methanesulfonamide], the “thermal stability of the 365 nm PSS (mostly cis) in the dark: time without change of spectra” value [1] was “only little change”, the “A(334 nm)” value (365 nm (t=0)) was 0.207 and the “A(334 nm)” value (365 nm (t=5 min)) was 0.200. For the same compound, the “A(334 nm)” value (365 nm (t=15 min)) was 0.206, the “A(334 nm)” value (365 nm (t=30min)) was 0.211 and the “A(334 nm)” value (365 nm (t=40 min)) was 0.208. For the same compound, the “A(334 nm)” value (365 nm (t=60min)) was 0.242.
